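Test compounds were applied to cells in 96-well plates for 48 hours at 5 doses. GI50 is the concentration that inhibits growth by half. TGI: total growth inhibition.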
Assays:
Assay in all cases: inhibition of tumour cell growth, NCI panel, 48 h
A549 NSCLC = system: A549 NSCLC
U251 CNS = system: U251 CNS
MDA-MB-231 breast = system: MDA-MB-231 breast
SK-MEL-28 melanoma = system: SK-MEL-28 melanoma
SN12C renal = system: SN12C renal
SNB-19 CNS = system: SNB-19 CNS
HCT-15 colon = system: HCT-15 colon
OVCAR-3 ovarian = system: OVCAR-3 ovarian
DMS 273 small cell lung = system: DMS 273 small cell lung
LXFL 529 NSCLC = system: LXFL 529 NSCLC

| Structure (SMILES) | GI50 (A549 NSCLC) [µM] | TGI (A549 NSCLC) [µM] | GI50 (U251 CNS) [µM] | TGI (U251 CNS) [µM] | GI50 (MDA-MB-231 breast) [µM] | TGI (MDA-MB-231 breast) [µM] | GI50 (SK-MEL-28 melanoma) [µM] | TGI (SK-MEL-28 melanoma) [µM] | GI50 (SN12C renal) [µM] | TGI (SN12C renal) [µM] | GI50 (SNB-19 CNS) [µM] | TGI (SNB-19 CNS) [µM] | GI50 (HCT-15 colon) [µM] | TGI (HCT-15 colon) [µM] | GI50 (OVCAR-3 ovarian) [µM] | TGI (OVCAR-3 ovarian) [µM] | TGI (DMS 273 small cell lung) [µM] | TGI (LXFL 529 NSCLC) [µM] |
| --- | --- | --- | --- | --- | --- | --- | --- | --- | --- | --- | --- | --- | --- | --- | --- | --- | --- | --- |
| COc1ccc(-c2[nH]c3ccccc3c2C=C(C#N)C#N)cc1 | 0.694 | > 100 | 0.479 | > 100 | 0.543 | > 22.6 | 1.14 | > 39.3 | 1.15 | > 100 | 1.3 | 36.5 | 0.587 | > 100 | 0.263 | 0.713 | – | – |
| Cc1c(Cl)ccc2c1NC(=O)C2(O)C(C(=O)c1ccccc1)c1ccccc1 (stereo unspecified) | – | > 100 | – | > 100 | – | – | – | > 100 | – | > 100 | – | > 100 | – | > 100 | – | – | > 100 | > 100 |
| Nc1nc(N)c(N=O)c(Nc2ccc(O)cc2)n1 | – | > 100 | – | > 100 | – | > 100 | – | > 100 | – | > 100 | – | > 100 | – | > 100 | – | > 100 | – | – |
| O=C(Nc1ccccc1O)c1cccc(NC2=C(Cl)C(=O)N(Cc3ccccc3)C2=O)c1 | 12.4 | 24.8 | 3.38 | 13.9 | 1.89 | 7.53 | 7.23 | 20.5 | 2.22 | 7.57 | 13.9 | 37.5 | 2.02 | 5.13 | 2.62 | 7.85 | – | – |
| O=S1c2ccccc2N=C(c2ccc3ccccc3c2)CC1C1=CC=CCC1 (stereo unspecified) | – | 91.2 | – | – | – | – | – | 33.1 | – | 36.9 | – | – | – | 35.7 | – | 31.8 | 41 | 29.7 |
| COc1cc2nc(-c3cnc(N(C)C)nc3)nc(NC3CCN(Cc4ccccc4)CC3)c2cc1OC | 0.351 | 1.79 | 0.222 | 0.573 | 1.57 | 3.4 | 1.83 | 3.58 | 1.77 | 3.49 | 1.2 | 3.1 | 1.01 | 2.39 | 1.69 | 3.27 | – | – |
| COc1cc(/C=C2/C(=O)N(C(=O)OC(C)C)C(Cc3cc(OC)c(OC)c(C)c3OC)C(=O)N2Cc2ccccc2)c(OC)c(C)c1OC (stereo unspecified) | – | > 100 | – | > 100 | – | – | – | > 100 | – | > 100 | – | – | – | – | – | > 100 | > 100 | > 100 |
| CCOC(C)C(/C=N/NC(N)=S)=NNC(N)=S (stereo unspecified) | – | > 100 | – | > 100 | – | – | – | > 100 | – | > 100 | – | > 100 | – | > 100 | – | – | – | > 100 |
| C[C@@H]1CN(C(=O)c2ccc(NC(=O)c3cc(O[C@H](C)c4c(Cl)ccc(F)c4Cl)c(N)nn3)cc2)C[C@H](C)N1 | 3.03 | 15.8 | 3.4 | 12.9 | 2.1 | 8 | 1.75 | 3.86 | 2.41 | 13.6 | 5.41 | 18.1 | 3.92 | 15.1 | 6.44 | 19 | – | – |

Reference: PubChem BioAssay (NCI)
